What was measured:
Format in all cases: cell-based
[1] = target: GluN2D-containing NMDA receptors (Homo sapiens, UniProt O15399); assay: Two-electrode voltage-clamp recordings from Xenopus laevis oocytes, GluN2D; details: for I10 μM/ICONTROL (mean ± SEM, %) Glu N2D: 10 μM test compound with glutamate 100 μM and glycine 30 μM, Tables 1-5; for I10 μM/ICONTROL (mean ± SEM, %) Glu N2D / maximal potentiation Glu N2D: percent of response without compound; for IC50 / maximal potentiation Glu N2D: Table 2; for IC50: glutamate 100 μM, glycine 30 μM, Hill fit, read-out: IC50 Glu N2D; for maximal potentiation Glu N2D: in brackets below IC50
GluN2D-containing NMDA receptors, sequence (O15399 28-1336, other chains not shown): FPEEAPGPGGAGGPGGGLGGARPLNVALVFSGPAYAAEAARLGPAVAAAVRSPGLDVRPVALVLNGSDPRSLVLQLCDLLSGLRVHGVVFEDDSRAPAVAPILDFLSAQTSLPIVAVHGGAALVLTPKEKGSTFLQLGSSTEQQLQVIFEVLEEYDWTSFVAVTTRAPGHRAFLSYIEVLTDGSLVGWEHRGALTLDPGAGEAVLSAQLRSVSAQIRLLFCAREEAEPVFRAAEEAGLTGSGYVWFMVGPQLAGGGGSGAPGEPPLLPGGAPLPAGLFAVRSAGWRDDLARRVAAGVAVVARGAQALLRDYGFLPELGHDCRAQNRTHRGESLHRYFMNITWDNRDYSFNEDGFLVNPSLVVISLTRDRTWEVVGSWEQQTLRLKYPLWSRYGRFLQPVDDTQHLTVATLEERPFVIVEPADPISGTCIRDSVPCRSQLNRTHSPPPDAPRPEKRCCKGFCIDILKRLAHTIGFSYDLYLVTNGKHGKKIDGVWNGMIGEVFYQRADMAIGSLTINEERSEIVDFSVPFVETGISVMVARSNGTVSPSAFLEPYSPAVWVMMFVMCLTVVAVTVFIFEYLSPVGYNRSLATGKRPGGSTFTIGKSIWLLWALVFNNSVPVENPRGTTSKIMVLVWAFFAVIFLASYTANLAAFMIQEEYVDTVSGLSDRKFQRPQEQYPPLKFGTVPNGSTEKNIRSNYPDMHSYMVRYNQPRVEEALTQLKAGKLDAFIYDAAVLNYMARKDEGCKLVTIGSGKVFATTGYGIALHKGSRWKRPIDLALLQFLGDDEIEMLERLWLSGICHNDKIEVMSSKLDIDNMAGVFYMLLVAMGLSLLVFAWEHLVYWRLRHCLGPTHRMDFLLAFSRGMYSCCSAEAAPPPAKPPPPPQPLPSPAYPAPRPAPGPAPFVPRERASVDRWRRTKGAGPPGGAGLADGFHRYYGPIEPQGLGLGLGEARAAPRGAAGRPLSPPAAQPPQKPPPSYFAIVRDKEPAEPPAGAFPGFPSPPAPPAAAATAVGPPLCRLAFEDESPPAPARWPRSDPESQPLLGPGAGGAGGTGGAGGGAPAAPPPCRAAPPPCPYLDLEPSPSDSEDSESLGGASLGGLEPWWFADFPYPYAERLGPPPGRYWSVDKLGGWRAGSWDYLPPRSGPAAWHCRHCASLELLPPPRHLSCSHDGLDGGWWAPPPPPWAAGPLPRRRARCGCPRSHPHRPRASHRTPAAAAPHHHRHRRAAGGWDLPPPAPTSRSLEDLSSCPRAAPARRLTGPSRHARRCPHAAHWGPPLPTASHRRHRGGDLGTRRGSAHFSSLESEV
Protocol: (§1) Xenopus laevis oocytes were injected with cRNA encoding the NMDA receptor subunits. Two to seven days after injection, two-electrode voltage-clamp recordings were performed. Extracellular solutions were made from a solutions containing (in mM) 90 NaCl, 3 KCl, 10 HEPES, 0.5 BaCl2, 0.01 EDTA (pH 7.4 with NaOH). Voltage and current electrodes were filled with 0.3 M and 3.0 M KCl, respectively.
(§2) Potency was determined by adding increasing concentrations of test compound to saturating concentrations of glutamate (100 μM) and glycine (30 μM), and the response amplitude measured. The response in the presence of each concentration of test compound plus agonists was expressed as a percent of the response in the absence of test compound.

[2] = target: GluN2B-containing NMDA receptors (Homo sapiens, UniProt Q13224); assay: Two-electrode voltage-clamp recordings from Xenopus laevis oocytes, GluN2B; details: for I10 μM/ICONTROL (mean ± SEM, %) Glu N2B: 10 μM test compound with glutamate 100 μM and glycine 30 μM, Tables 1-5; for I10 μM/ICONTROL (mean ± SEM, %) Glu N2B / maximal potentiation Glu N2B: percent of response without compound; for IC50 / maximal potentiation Glu N2B: Table 2; for IC50: glutamate 100 μM, glycine 30 μM, Hill fit, read-out: IC50 Glu N2B; for maximal potentiation Glu N2B: in brackets below IC50
GluN2B-containing NMDA receptors, sequence (Q13224 27-1484, other chains not shown): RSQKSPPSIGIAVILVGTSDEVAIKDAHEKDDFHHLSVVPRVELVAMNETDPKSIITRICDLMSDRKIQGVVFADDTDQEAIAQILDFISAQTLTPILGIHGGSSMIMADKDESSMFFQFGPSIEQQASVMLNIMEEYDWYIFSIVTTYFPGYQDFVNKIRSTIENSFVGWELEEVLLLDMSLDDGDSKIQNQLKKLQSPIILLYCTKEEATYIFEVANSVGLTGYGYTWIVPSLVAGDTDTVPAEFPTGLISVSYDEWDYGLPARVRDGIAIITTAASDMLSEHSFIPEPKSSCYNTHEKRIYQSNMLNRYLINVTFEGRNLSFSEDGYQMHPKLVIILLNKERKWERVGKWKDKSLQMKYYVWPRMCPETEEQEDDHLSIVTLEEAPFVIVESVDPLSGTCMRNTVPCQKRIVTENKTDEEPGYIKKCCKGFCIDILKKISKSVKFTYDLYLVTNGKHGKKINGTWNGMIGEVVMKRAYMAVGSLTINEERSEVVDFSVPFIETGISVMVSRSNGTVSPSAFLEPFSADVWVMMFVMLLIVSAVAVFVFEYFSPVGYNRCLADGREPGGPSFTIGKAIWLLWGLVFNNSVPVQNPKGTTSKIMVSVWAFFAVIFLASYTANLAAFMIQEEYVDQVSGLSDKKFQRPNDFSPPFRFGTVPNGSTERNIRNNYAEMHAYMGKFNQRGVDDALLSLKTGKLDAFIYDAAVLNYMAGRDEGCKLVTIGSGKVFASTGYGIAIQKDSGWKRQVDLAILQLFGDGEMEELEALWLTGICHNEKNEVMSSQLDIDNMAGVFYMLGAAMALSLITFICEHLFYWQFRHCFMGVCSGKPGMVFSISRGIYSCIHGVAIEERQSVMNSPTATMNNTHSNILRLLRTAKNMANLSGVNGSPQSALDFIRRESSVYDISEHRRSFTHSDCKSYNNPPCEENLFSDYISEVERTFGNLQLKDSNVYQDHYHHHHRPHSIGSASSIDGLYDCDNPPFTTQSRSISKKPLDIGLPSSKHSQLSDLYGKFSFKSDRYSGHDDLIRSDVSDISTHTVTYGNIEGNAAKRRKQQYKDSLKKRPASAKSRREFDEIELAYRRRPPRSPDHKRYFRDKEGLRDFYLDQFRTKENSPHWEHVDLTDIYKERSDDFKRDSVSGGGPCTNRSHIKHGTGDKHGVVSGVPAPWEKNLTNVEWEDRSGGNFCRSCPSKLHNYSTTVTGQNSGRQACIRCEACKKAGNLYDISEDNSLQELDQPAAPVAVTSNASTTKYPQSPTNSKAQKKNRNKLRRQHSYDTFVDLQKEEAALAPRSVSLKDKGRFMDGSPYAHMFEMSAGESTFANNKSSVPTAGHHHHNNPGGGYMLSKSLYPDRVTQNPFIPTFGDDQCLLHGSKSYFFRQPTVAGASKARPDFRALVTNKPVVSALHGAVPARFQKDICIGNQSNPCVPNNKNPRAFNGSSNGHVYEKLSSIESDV
Protocol: as §1, §2

[3] = target: GluN2C-containing NMDA receptors (Homo sapiens, UniProt Q14957); assay: Two-electrode voltage-clamp recordings from Xenopus laevis oocytes, GluN2C; details: for I10 μM/ICONTROL (mean ± SEM, %) Glu N2C: 10 μM test compound with glutamate 100 μM and glycine 30 μM, Tables 1-5; for I10 μM/ICONTROL (mean ± SEM, %) Glu N2C / maximal potentiation Glu N2C: percent of response without compound; for IC50 / maximal potentiation Glu N2C: Table 2; for IC50: glutamate 100 μM, glycine 30 μM, Hill fit, read-out: IC50 Glu N2C; for maximal potentiation Glu N2C: in brackets below IC50
GluN2C-containing NMDA receptors, sequence (Q14957 20-1233, other chains not shown): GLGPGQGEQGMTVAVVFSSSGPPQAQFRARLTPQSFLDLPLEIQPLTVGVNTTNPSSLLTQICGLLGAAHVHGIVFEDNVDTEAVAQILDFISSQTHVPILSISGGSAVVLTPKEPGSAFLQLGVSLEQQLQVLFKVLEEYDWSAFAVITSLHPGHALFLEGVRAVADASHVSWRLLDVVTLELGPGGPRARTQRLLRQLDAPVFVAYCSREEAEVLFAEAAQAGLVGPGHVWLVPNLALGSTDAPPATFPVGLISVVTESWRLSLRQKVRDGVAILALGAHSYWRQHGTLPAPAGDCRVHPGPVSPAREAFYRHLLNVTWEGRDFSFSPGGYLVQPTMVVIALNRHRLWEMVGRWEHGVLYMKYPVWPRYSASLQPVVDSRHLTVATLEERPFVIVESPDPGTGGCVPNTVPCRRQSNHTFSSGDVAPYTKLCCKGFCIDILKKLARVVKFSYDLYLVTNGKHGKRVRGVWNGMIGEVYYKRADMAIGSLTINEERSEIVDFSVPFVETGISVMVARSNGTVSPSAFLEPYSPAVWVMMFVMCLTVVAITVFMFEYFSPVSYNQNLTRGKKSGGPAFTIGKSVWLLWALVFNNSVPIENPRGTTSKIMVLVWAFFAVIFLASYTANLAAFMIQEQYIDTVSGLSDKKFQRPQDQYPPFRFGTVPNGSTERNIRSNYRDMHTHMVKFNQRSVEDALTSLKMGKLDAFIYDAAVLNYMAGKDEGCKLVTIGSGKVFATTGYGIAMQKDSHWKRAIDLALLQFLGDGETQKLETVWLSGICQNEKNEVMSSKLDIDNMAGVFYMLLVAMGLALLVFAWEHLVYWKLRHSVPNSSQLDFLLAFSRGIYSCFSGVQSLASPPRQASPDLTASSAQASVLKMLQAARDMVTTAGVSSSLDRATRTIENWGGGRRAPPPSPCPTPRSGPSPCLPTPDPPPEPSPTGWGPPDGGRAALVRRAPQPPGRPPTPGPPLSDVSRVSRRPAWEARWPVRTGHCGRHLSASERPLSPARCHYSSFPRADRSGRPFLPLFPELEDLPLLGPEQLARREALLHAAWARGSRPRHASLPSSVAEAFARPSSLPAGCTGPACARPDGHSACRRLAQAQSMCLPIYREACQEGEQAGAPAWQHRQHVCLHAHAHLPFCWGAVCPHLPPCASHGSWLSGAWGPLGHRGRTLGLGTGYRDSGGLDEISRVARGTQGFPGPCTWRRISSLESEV
Protocol: as §1, §2

Structure (SMILES) | I10 μM/ICONTROL (mean ± SEM, %) Glu N2D [1] | I10 μM/ICONTROL (mean ± SEM, %) Glu N2B [2] | I10 μM/ICONTROL (mean ± SEM, %) Glu N2C [3] | IC50 [1] | maximal potentiation Glu N2D [1] | IC50 [2] | maximal potentiation Glu N2B [2] | IC50 [3] | maximal potentiation Glu N2C [3]
Cc1sc2ncn(CC(=O)OC(C)(C)C)c(=O)c2c1-c1cccc(I)c1 [1 / 3-I—Ph / Me / OtBu] | 94 ± 4.3% | 87 ± 3.9% | 101 ± 6.8% |  |  |  |  |  | 
Cc1sc2ncn(CC(=O)c3ccccc3)c(=O)c2c1-c1cccc(I)c1 [1 / 3-I—Ph / Me / Ph] | 133 ± 3.1% | 139 ± 3.9% | 161 ± 10.9% | 41 µM | (305) % | 7.9 µM | (169) % | 15 µM | (273) %
Cc1sc2ncn(CC(=O)N(C)C)c(=O)c2c1-c1ccc(Br)cc1 [1 / 4-Br—Ph / Me / —N(Me)2] | 105 ± 1.8% | 92 ± 1.7% | 109 ± 3.1% |  |  |  |  |  | 
CCOC(=O)CNC(=O)Cn1cnc2sc(C)c(-c3ccc(Br)cc3)c2c1=O [1 / 4-Br—Ph / Me / —NHCH2COOEt] | 104 ± 0.6% | 96 ± 2.1% | 104 ± 2.5% |  |  |  |  |  | 
Cc1sc2ncn(CC(=O)NCC(=O)O)c(=O)c2c1-c1ccc(Cl)cc1 [1 / 4-Cl—Ph / Me / —NHCH2COOH] | 93 ± 1.8% | 87 ± 1.3% | 105 ± 3.7% |  |  |  |  |  | 
Cc1sc2ncn(CC(=O)N3CCC[C@H]3C(=O)O)c(=O)c2c1-c1ccc(Cl)cc1 [1 / 4-Cl—Ph / Me / —Nproline (S)] | 97 ± 1.9% | 89 ± 1.7% | 104 ± 2.3% |  |  |  |  |  | 
Cc1sc2ncn(CC(=O)N3CCCC3)c(=O)c2c1-c1ccc(Cl)cc1 [1 / 4-Cl—Ph / Me / —Npyrrolidine] |  |  |  | 23 µM | (381) % | 11 µM | (223) % | 15 µM | (347) %
CCOC(=O)CCn1cnc2sc(C)c(-c3cccc(Cl)c3)c2c1=O [2 / 3-Cl—Ph / Me / OEt] | 97 ± 1.6% | 107 ± 2.3% | 91 ± 2.5% |  |  |  |  |  | 
Cc1sc2ncn(CCC(=O)O)c(=O)c2c1-c1cccc(Cl)c1 [2 / 3-Cl—Ph / Me / OH] | 97 ± 1.1% | 99 ± 0.6% | 89 ± 6.2% |  |  |  |  |  | 
Cc1sc2ncn(CCC(=O)Oc3ccccc3)c(=O)c2c1-c1cccc(Cl)c1 [2 / 3-Cl—Ph / Me / OPh] | 88 ± 2.4% | 104 ± 3.6% | 91 ± 1.1% |  |  |  |  |  | 
Cc1sc2ncn(CCC(=O)N3CCCC3)c(=O)c2c1-c1cccc(Cl)c1 [2 / 3-Cl—Ph / Me / —Npyrrolidine] | 90 ± 1.7% | 95 ± 1.7% | 99 ± 5.0% |  |  |  |  |  | 
O=C(Cn1cnc2sc3c(c2c1=O)CCCC3)c1ccc(Cl)cc1Cl [2,4-Cl] | 97 ± 1.8% | 91 ± 3.6% | 106 ± 4.4% |  |  |  |  |  | 

— US12006328B2, “Thieno[2,3-d]pyrimidin-4-one derivatives as NMDAR modulators and uses related thereto” (Emory University, priority 2014, dated 2024)
